Test results reported in patent US20070066505A1, “Anthocyanases as detergent additives” (priority 2005, published 2007).
Read-outs that look alike come from different tables or passages of the source. Each block holds one molecule with its values, some of them ahead of it.

Assays:
[1] = test system: Debaryomyces vanrijiae anthocyanase (DVantp, enzyme-4), native; test: Km determination via β-glucosidase activity, anthocyanase of D. vanrijiae (enzyme-4); format: biochemical; conditions: read-out: Km value for cellobiose; established data
From the text: Moreover, the molecular weight and the isoelectric point were taken from literature (A. Belancic et al., J. Agric. Food Chem., 51: 1453-1459).

[2] = test system: Debaryomyces hansenii anthocyanase (Dantp, enzyme-2), native; test: Km determination via β-glucosidase activity, anthocyanase of D. hansenii (enzyme-2); format: biochemical; conditions: read-out: Km value for cellobiose; native enzyme-2
Description: The biochemical examinations of the anthocyanase (enzyme-2) of D. hansenii were performed corresponding to the anthocyanases examined up to then. Thus, their biochemical parameters were determined by means of β-glucosidase activity determinations. […] D. hansenii anthocyanase has a temperature optimum of 55° C. and a pH optimum of 5.0. […] Furthermore, with this yeast, too, one started to establish the substrate spectrum.

[3] = test system: Pichia etchellsii anthocyanase (Pantp, enzyme-5), native; test: Km determination via β-glucosidase activity, anthocyanase of P. etchellsii (enzyme-5); format: biochemical; conditions: native enzyme-5
Description: The biochemical examinations of the anthocyanase (enzyme-5) of P. etchellsii were performed analogously to the anthocyanases examined up to then.
The temperature optimum was 50° C. and the optimal pH value was 6.5.

[4] = substrate: O=[N+]([O-])c1ccc(O[C@@H]2O[C@H](CO)[C@@H](O)[C@H](O)[C@H]2O)cc1; test: Km determination, recombinant anthocyanase (r-enzyme-1) of C. molischiana; format: biochemical, Candida molischiana; conditions: other: recombinant anthocyanase (r-enzyme-1); pH 5.5
Description: (§1) A. adeninivorans G1211/pAL-ALEU2m-BGLN was tested for the presence of recombinant anthocyanase (Bglnp-r-enz-1). For doing so, the recombinant enzyme was isolated, purified and biochemically characterized.
(§2) The recombinant anthocyanase has parameters very similar to those of C. molischiana enzyme (FIG. 9 and FIG. 10).
(§3) The temperature optimum was established at 40° C. The temperature range in which this anthocyanase was still has more than 80% activity was between 37.5° C. and 50° C. The optimum pH value was 4.0. However, the recombinant anthocyanase has an essentially broader pH tolerance range than the anthocyanase synthesized in C. molischiana. Thus, its activity was still 80% with a pH value of 5.5.

[5] = substrate: OC[C@H]1O[C@@H](O[C@H]2[C@H](O)[C@@H](O)C(O)O[C@@H]2CO)[C@H](O)[C@@H](O)[C@@H]1O; test: as above; format: biochemical, Candida molischiana; conditions: other: recombinant anthocyanase (r-enzyme-1); pH 5.5
Description: as §1, §2, §3

Molecule: OC[C@H]1O[C@@H](O[C@H]2[C@H](O)[C@@H](O)C(O)O[C@@H]2CO)[C@H](O)[C@@H](O)[C@@H]1O (stereo partly drawn) [cellobiose]
Km [1]: 8.3 mM
Km [2]: 16.3 mM
Km ([3]; read-out: Km value for cellobiose): 84.5 mM

Km ([3]; read-out: Km value for pNPG): 59.7 mM
Molecule: O=[N+]([O-])c1ccc(O[C@@H]2O[C@H](CO)[C@@H](O)[C@H](O)[C@H]2O)cc1 [pNPG]

B1: Candida molischiana anthocyanase (anthocyanin-β-glucosidase), recombinant, produced in Arxula adeninivorans (r-enzyme-1, rBglnp) (Kuraishia capsulata) (protein)
chain: KNISKAEMENLEHWWSYGRSDPVYPSPEISGLGDWQFAYQRAREIVALMTNEEKTNLTFGSSGDTGCSGMISDVPDVDFPGLCLQDAGNGVRGTDMVNAYASGLHVGASWNRQLAYDRAVYMGAEFRHKGVNVLLGPVVGPIGRVATGGRNWEGFTNDPYLAGALVYETTKGIQENVIACTKHFIGNEQETNRNPSGTYNQSVSANIDDKTMHELYLWPFQDSVRAGLGSIMGSYNRVNNSYACKNSKVLNGLLKSELGFQGFVVSDWGGQHTGIASANAGLDMAMPSSTYWEEGLIEAVKNGTVDQSRLDDMATRIIAAWYKYARLDDPGFGMPVSLAEDHELVDARDPAAASTIFQGAVEGHVLVKNENALPLKKPKYISLFGYDGVSTDVNTVGGGFSFFSFDVKAIENKTLISGGGSGTNTPSYVDAPFNAFVAKAREDNTFLSWDFTSAEPVANPASDACIDFINAAASEGYDRPNLADKYSDKLVEAVASQCSNTIVVIHNAGIRLVDNWIEHENVTGVILAHLPGQDTGTSLIEVLYGNQSPSGRLPYTVAKKASDYGGLLWPTEPEGDLDLYFPQSNFTEGVYIDYKYFIQKNITPRYEFGYGLTYTTFDYSELEVDAITNQSYLPPDCTIEEGGAKSLWDIVATVKFTVTNTGDVAAAEVPQLYVGIPNGPPKVLRGFDKKLIHPGQSEEFVFELTRRDLSTWDVVAQNWGLQAGTYQFYVGRSVFDVPLTSALVFTN
Km [4]: 5.56 mM
Km [5]: 58.27 mM
